Test results published in patent publication US20020137929A1, “1 - (3-heterocyclylphenyl) isothiourea, -isourea, -guanidine and -amidine herbicidal agents” (Intellectual Property Department, BASF Aktiengesellschaft, priority 1998, published 2002).

Key:
[1] = test system: AMBEL (Ragweed, Common); experiment: Postemergence herbicidal evaluation; assay type: in vivo, Ambrosia artemisifolia; conditions: postemergence
Outline: (§1)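 Rate range approx. 0.0156–0.500 kg/ha. Foliar application at 40 psi to ~2-week seedlings; surfactant 0.5% TWEEN 20 in 50/50 acetone/water. Evaluation 4–5 wk post-treatment by 0–9 visual injury score, means of replicate tests.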

[2] = test system: CASOB (Sicklepod); experiment: Postemergence herbicidal evaluation; assay type: in vivo, Cassia obtusifolia; conditions: postemergence
Outline: as §1

[3] = test system: GALAP (Galium); experiment: Postemergence herbicidal evaluation; assay type: in vivo, Galium aparine; conditions: postemergence
Outline: as §1

[4] = test system: SETVI (Foxtail, Green); experiment: Postemergence herbicidal evaluation; assay type: in vivo, Setaria viridis; conditions: postemergence
Outline: as §1

[5] = test system: ORYSAT (Rice, Tebonnet); experiment: Postemergence herbicidal evaluation; assay type: in vivo, Oryza sativa, (L.) Tebonnet; conditions: postemergence
Outline: as §1

[6] = test system: TRZAWR (Wheat, Winter, cv Riband); experiment: Postemergence herbicidal evaluation; assay type: in vivo, Triticum aestivum; conditions: postemergence
Outline: as §1

[7] = test system: ZEAMX (Corn, Field); experiment: Postemergence herbicidal evaluation; assay type: in vivo, Zea mays; conditions: postemergence
Outline: as §1

[8] = test system: AMBEL (Ragweed, Common); experiment: Preemergence herbicidal evaluation; assay type: in vivo, Ambrosia artemisifolia; conditions: rated 4-5 weeks after treatment
Outline: (§2)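 In this greenhouse assay, monocot and dicot seeds are planted in soil and treated prior to emergence with an aqueous acetone spray (about 0.0156-0.500 kg/ha). Plants are assessed visually against control on a 0-9 scale after 4-5 weeks.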

[9] = test system: CASOB (Sicklepod); experiment: Preemergence herbicidal evaluation; assay type: in vivo, Cassia obtusifolia; conditions: rated 4-5 weeks after treatment
Outline: as §2

[10] = test system: CHEAL (Lambsquarters, Common); experiment: Preemergence herbicidal evaluation; assay type: in vivo, Chenopodium album; conditions: rated 4-5 weeks after treatment
Outline: as §2

[11] = test system: ECHCG (Barnyardgrass); experiment: Preemergence herbicidal evaluation; assay type: in vivo, Echinochloa crus-galli; conditions: rated 4-5 weeks after treatment
Outline: as §2

[12] = test system: SETVI (Foxtail, Green); experiment: Preemergence herbicidal evaluation; assay type: in vivo, Setaria viridis; conditions: rated 4-5 weeks after treatment
Outline: as §2

[13] = test system: TRZAWR (Wheat, Winter, cv Riband); experiment: Preemergence herbicidal evaluation; assay type: in vivo, Triticum aestivum; conditions: rated 4-5 weeks after treatment
Outline: as §2

[14] = test system: ECHORC (Watergrass (Calif.)); experiment: Preemergence weed control under flooded paddy conditions; assay type: in vivo, Echinochloa oryzoides; conditions: rated 3-4 weeks after treatment
Outline: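 Seeds or propagules sown in silt loam kept flooded 1.5-3 cm; compounds in 50/50 acetone/water pipetted into flood water at about 0.0313 to 0.500 kg/ha. Greenhouse; visual 0-9 rating versus untreated control 3-4 weeks after treatment.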

[15] = test system: SAGPY (Arrowhead (Pygmaea)); experiment: as above; assay type: in vivo, Sagittaria pygmaea; conditions: rated 3-4 weeks after treatment
Outline: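 Herbicidal effect is scored visually on a 0-9 scale against an untreated control, three to four weeks after compounds are pipetted into the flood water (1.5 to 3 cm deep) over seeds planted in silt loam at 0.5 cm depth. Rates: about 0.0313 to 0.500 kg/ha.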

For `CC1SC(=Nc2cc(N3C(=O)C4=C(CCCC4)C3=O)c(F)cc2Cl)N(C)C1=O` (centres unmarked) [Compound 4], which AMBEL herbicidal rating ([1]; rate 0.0313 kg/ha) is on record?
The AMBEL herbicidal rating was 0.0.

And the AMBEL herbicidal rating ([1]; rate 0.0625 kg/ha)?
The AMBEL herbicidal rating was 0.0.

What about the AMBEL herbicidal rating ([1]; rate 0.1250 kg/ha) of the same compound?
Its AMBEL herbicidal rating is 2.0.

And the AMBEL herbicidal rating ([1]; rate 0.2500 kg/ha)?
The AMBEL herbicidal rating was 6.0.

And the AMBEL herbicidal rating ([1]; rate 0.5000 kg/ha)?
Its AMBEL herbicidal rating is 6.0.

What about the CASOB herbicidal rating ([2]; rate 0.0313 kg/ha) of the same compound?
Its CASOB herbicidal rating is 0.0.

What about the CASOB herbicidal rating ([2]; rate 0.0625 kg/ha) of the same compound?
Its CASOB herbicidal rating is 0.0.

And the CASOB herbicidal rating ([2]; rate 0.1250 kg/ha)?
The CASOB herbicidal rating was 0.0.

What about the CASOB herbicidal rating ([2]; rate 0.2500 kg/ha) of the same compound?
Its CASOB herbicidal rating is 0.0.

What about the CASOB herbicidal rating ([2]; rate 0.5000 kg/ha) of the same compound?
The CASOB herbicidal rating was 2.0.

What about the GALAP herbicidal rating ([3]; rate 0.0313 kg/ha) of the same compound?
Its GALAP herbicidal rating is 0.0.

And the GALAP herbicidal rating ([3]; rate 0.0625 kg/ha)?
The GALAP herbicidal rating was 2.0.

What about the GALAP herbicidal rating ([3]; rate 0.1250 kg/ha) of the same compound?
Its GALAP herbicidal rating is 2.0.

What about the GALAP herbicidal rating ([3]; rate 0.5000 kg/ha) of the same compound?
Its GALAP herbicidal rating is 6.0.

And the SETVI herbicidal rating ([4]; rate 0.0313 kg/ha)?
Its SETVI herbicidal rating is 0.0.

What about the SETVI herbicidal rating ([4]; rate 0.0625 kg/ha) of the same compound?
The SETVI herbicidal rating was 2.0.

And the SETVI herbicidal rating ([4]; rate 0.1250 kg/ha)?
The SETVI herbicidal rating was 0.0.

What about the SETVI herbicidal rating ([4]; rate 0.2500 kg/ha) of the same compound?
The SETVI herbicidal rating was 2.0.

And the SETVI herbicidal rating ([4]; rate 0.5000 kg/ha)?
Its SETVI herbicidal rating is 8.0.

What about the ORYSAT herbicidal rating ([5]; rate 0.0313 kg/ha) of the same compound?
Its ORYSAT herbicidal rating is 1.0.

And the ORYSAT herbicidal rating ([5]; rate 0.0625 kg/ha)?
Its ORYSAT herbicidal rating is 1.0.

What about the ORYSAT herbicidal rating ([5]; rate 0.1250 kg/ha) of the same compound?
Its ORYSAT herbicidal rating is 2.5.

What about the ORYSAT herbicidal rating ([5]; rate 0.2500 kg/ha) of the same compound?
The ORYSAT herbicidal rating was 1.5.

And the ORYSAT herbicidal rating ([5]; rate 0.5000 kg/ha)?
The ORYSAT herbicidal rating was 3.0.

What about the TRZAWR herbicidal rating ([6]; rate 0.0313 kg/ha) of the same compound?
Its TRZAWR herbicidal rating is 3.0.

And the TRZAWR herbicidal rating ([6]; rate 0.0625 kg/ha)?
The TRZAWR herbicidal rating was 3.5.

What about the TRZAWR herbicidal rating ([6]; rate 0.1250 kg/ha) of the same compound?
Its TRZAWR herbicidal rating is 4.0.

And the TRZAWR herbicidal rating ([6]; rate 0.2500 kg/ha)?
The TRZAWR herbicidal rating was 4.5.

And the TRZAWR herbicidal rating ([6]; rate 0.5000 kg/ha)?
The TRZAWR herbicidal rating was 4.5.

What about the ZEAMX herbicidal rating ([7]; rate 0.0313 kg/ha) of the same compound?
Its ZEAMX herbicidal rating is 3.0.

What about the ZEAMX herbicidal rating ([7]; rate 0.0625 kg/ha) of the same compound?
Its ZEAMX herbicidal rating is 3.5.

And the ZEAMX herbicidal rating ([7]; rate 0.1250 kg/ha)?
The ZEAMX herbicidal rating was 4.0.

What about the ZEAMX herbicidal rating ([7]; rate 0.2500 kg/ha) of the same compound?
The ZEAMX herbicidal rating was 4.0.

And the ZEAMX herbicidal rating ([7]; rate 0.5000 kg/ha)?
The ZEAMX herbicidal rating was 4.0.

And the “AMBEL preemergence herbicidal rating” value ([8]; rate 0.1250 kg/ha)?
The value was 0.0.

And the “AMBEL preemergence herbicidal rating” value ([8]; rate 0.2500 kg/ha)?
The value was 1.0.

What about the “AMBEL preemergence herbicidal rating” value ([8]; rate 0.5000 kg/ha) of the same compound?
The value was 4.0.

What about the “CASOB preemergence herbicidal rating” value ([9]; rate 0.1250 kg/ha) of the same compound?
The value was 0.0.

What about the “CASOB preemergence herbicidal rating” value ([9]; rate 0.2500 kg/ha) of the same compound?
Its value is 2.0.

And the “CASOB preemergence herbicidal rating” value ([9]; rate 0.5000 kg/ha)?
The value was 7.0.

And the “CHEAL preemergence herbicidal rating” value ([10]; rate 0.1250 kg/ha)?
The value was 0.0.

And the “CHEAL preemergence herbicidal rating” value ([10]; rate 0.2500 kg/ha)?
Its value is 2.0.

And the “CHEAL preemergence herbicidal rating” value ([10]; rate 0.5000 kg/ha)?
Its value is 9.0.

What about the “ECHCG preemergence herbicidal rating” value ([11]; rate 0.1250 kg/ha) of the same compound?
The value was 0.0.

What about the “ECHCG preemergence herbicidal rating” value ([11]; rate 0.2500 kg/ha) of the same compound?
The value was 2.0.

And the “ECHCG preemergence herbicidal rating” value ([11]; rate 0.5000 kg/ha)?
The value was 6.0.

And the “SETVI preemergence herbicidal rating” value ([12]; rate 0.1250 kg/ha)?
The value was 2.0.

What about the “SETVI preemergence herbicidal rating” value ([12]; rate 0.2500 kg/ha) of the same compound?
Its value is 4.0.

What about the “SETVI preemergence herbicidal rating” value ([12]; rate 0.5000 kg/ha) of the same compound?
The value was 9.0.

What about the “TRZAWR preemergence herbicidal rating” value ([13]; rate 0.1250 kg/ha) of the same compound?
Its value is 2.0.

And the “TRZAWR preemergence herbicidal rating” value ([13]; rate 0.2500 kg/ha)?
The value was 3.0.

And the “TRZAWR preemergence herbicidal rating” value ([13]; rate 0.5000 kg/ha)?
The value was 3.0.

And the “Herbicidal rating ECHORC” value ([14]; 0.0313 kg/ha)?
Its value is 2.0.

What about the “Herbicidal rating ECHORC” value ([14]; 0.0625 kg/ha) of the same compound?
Its value is 4.0.

What about the “Herbicidal rating ECHORC” value ([14]; 0.1250 kg/ha) of the same compound?
Its value is 7.0.

What about the “Herbicidal rating ECHORC” value ([14]; 0.2500 kg/ha) of the same compound?
Its value is 8.0.

And the “Herbicidal rating ECHORC” value ([14]; 0.5000 kg/ha)?
Its value is 9.0.

What about the “Herbicidal rating SAGPY” value ([15]; 0.0313 kg/ha) of the same compound?
Its value is 0.0.

What about the “Herbicidal rating SAGPY” value ([15]; 0.0625 kg/ha) of the same compound?
Its value is 0.0.

And the “Herbicidal rating SAGPY” value ([15]; 0.1250 kg/ha)?
The value was 0.0.

What about the “Herbicidal rating SAGPY” value ([15]; 0.2500 kg/ha) of the same compound?
Its value is 0.0.

What about the “Herbicidal rating SAGPY” value ([15]; 0.5000 kg/ha) of the same compound?
The value was 0.0.
